Tests used:
[1] = target: Kappa-type opioid receptor (Cavia porcellus, UniProt P41144); assay: Displacement of [3H]U69593 from kappa opioid receptor in guinea pig cerebellum; assay type: tissue-based
Mu-type opioid receptor = Mu-type opioid receptor (Cavia porcellus, UniProt P97266); assay: Displacement of [3H]DAMGO from mu opioid receptor in guinea pig forebrain
[2] = Displacement of [3H]NTI from delta opioid receptor in guinea pig forebrain; parameters: species or system Cavia porcellus
[3] = target: Opioid receptor (mu and kappa) (Cavia porcellus) (UniProt P41144+P97266); assay: Selectivity ratio of Ki for mu opioid receptor in guinea pig forebrain to Ki for kappa opioid receptor in guinea pig cerebellum; assay type: tissue-based
Sequence of Opioid receptor (mu and kappa) (Cavia porcellus) (P41144 whole entry, looked up): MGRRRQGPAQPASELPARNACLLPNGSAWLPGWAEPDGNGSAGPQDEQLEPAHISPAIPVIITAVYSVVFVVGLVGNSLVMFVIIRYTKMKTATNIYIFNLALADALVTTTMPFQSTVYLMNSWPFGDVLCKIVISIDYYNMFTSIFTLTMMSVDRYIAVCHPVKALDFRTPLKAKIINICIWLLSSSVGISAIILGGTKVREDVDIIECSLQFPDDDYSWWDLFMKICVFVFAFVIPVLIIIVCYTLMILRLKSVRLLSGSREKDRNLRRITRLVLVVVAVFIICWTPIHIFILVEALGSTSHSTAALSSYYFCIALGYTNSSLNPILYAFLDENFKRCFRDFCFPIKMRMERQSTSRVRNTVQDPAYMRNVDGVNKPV
Sequence of Opioid receptor (mu and kappa) (Cavia porcellus) (P97266 whole entry, looked up): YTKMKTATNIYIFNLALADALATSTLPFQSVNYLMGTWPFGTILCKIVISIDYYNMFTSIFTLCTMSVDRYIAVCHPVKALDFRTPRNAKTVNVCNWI

Cavia porcellus = species: Cavia porcellus; assay: Selectivity ratio of Ki for delta opioid receptor in guinea pig forebrain to Ki for kappa opioid receptor in guinea pig cerebellum; assay type: tissue-based
Mus musculus = assay: Antinociceptive activity in sc dosed mouse assessed as effect on acetic acid-induced writhing; assay type: functional

Sequence of Mu-type opioid receptor (P97266 whole entry): as the sequence (P97266 whole entry, looked up) above
Sequence of Kappa-type opioid receptor (P41144 whole entry): as the sequence (P41144 whole entry, looked up) above

| SMILES | Ki [1] [nM] | Ki (Mu-type opioid receptor) [nM] | Ki [2] [nM] | Ratio Ki [3] | Ratio Ki (Cavia porcellus) | IC50 [2] [nM] | Activity (Mus musculus) | ED50 (Mus musculus) [mg/kg] |
| --- | --- | --- | --- | --- | --- | --- | --- | --- |
| Cn1c(/C=C/C(=O)c2ccccc2)cc2c1[C@@H]1Oc3c(O)ccc4c3[C@@]13CCN(CC1CC1)[C@H](C4)[C@]3(O)C2 | 0.467 | 3.76 | 3.74 | 8.1 | 8 |  |  |  |
| Cn1c(/C=C/c2ccccc2)cc2c1[C@@H]1Oc3c(O)ccc4c3[C@@]13CCN(CC1CC1)[C@H](C4)[C@]3(O)C2 | 3.79 | 1.76 |  | 0.5 |  | > 1000 |  |  |
| Cc1occc1C(=O)/C=C/c1cc2c(n1C)[C@@H]1Oc3c(O)ccc4c3[C@@]13CCN(CC1CC1)[C@H](C4)[C@]3(O)C2 | 1.15 | 6.2 | 1.47 | 5.4 | 1.3 |  |  |  |
| Cn1c(/C=C/C(=O)CCc2ccccc2)cc2c1[C@@H]1Oc3c(O)ccc4c3[C@@]13CCN(CC1CC1)[C@H](C4)[C@]3(O)C2 | 0.935 | 6.89 | 1.73 | 7.4 | 1.9 |  |  |  |
| Cn1c(/C=C/C(=O)Cc2ccccc2)cc2c1[C@@H]1Oc3c(O)ccc4c3[C@@]13CCN(CC1CC1)[C@H](C4)[C@]3(O)C2 | 1.13 | 6.58 | 2.08 | 5.8 | 1.8 |  |  |  |
| CCCCCC(=O)/C=C/c1cc2c(n1C)[C@@H]1Oc3c(O)ccc4c3[C@@]13CCN(CC1CC1)[C@H](C4)[C@]3(O)C2 | 1.24 | 15 | 3.55 | 12 | 2.9 |  | Dose-dependent effect | 5.87 |
| Cn1c(CCC(=O)CCc2ccccc2)cc2c1[C@@H]1Oc3c(O)ccc4c3[C@@]13CCN(CC1CC1)[C@H](C4)[C@]3(O)C2 | 0.342 | 0.548 | 1.59 | 1.6 | 4.6 |  |  |  |
| CCC/C=C/c1cc2c(n1C)[C@@H]1Oc3c(O)ccc4c3[C@@]13CCN(CC1CC1)[C@H](C4)[C@]3(O)C2 | 7.38 | 5.85 | 6.58 | 0.8 | 0.9 |  |  |  |

Reference: ChEMBL document CHEMBL1221313, “Synthesis of pyrrolomorphinan derivatives as kappa opioid agonists” (Bioorg Med Chem Lett, 2010)
